Reference: patent publication US7939275B2, “Methods for detection of chlamydia in samples” (priority 2005, dated 2011)
Read-outs that look alike come from different tables or passages of the source.

Key:
anti-Chlamydia abzymes [1] = format: biochemical, human
Procedure: (§1) For chemical inactivation, a diluent solution was divided into two portions. In one portion, an abzyme inhibitor was added. The following abzyme inhibitors were used DMSO, 0.1-10%; sodium azide, 10^−5-10^−3M; catechins, 10^−6-10^−3M; ketek, […]; lactobacilli culture, 1 μM-1 mM; ascorbic acid, 10^−4-10^−3M; acetyl salicylic acid, 10^−4-10^−3M.
(§2) The serum sample was split in two aliquots and one aliquot was diluted by solution containing the abzyme inhibitor, the second aliquot was diluted by the control solution. The aliquots were then tested in the same fashion.
Lipid peroxidation was assessed as a level of MDA concentration which was measured by spectrophotometric method [Draper, H. H. et al Free Radic. Biol. Med. (1993) 15, 353]. This method is based on the formation of a coloured product when malondialdehyde reacts with thiobarbituric acid. Briefly, the level of abzymes in a sample was determined as follows: Samples of sera were diluted 1:1 by 0.05M acetate buffer pH 4.0 to make the final pH of these samples between 5.6-5.8. 990 μl of the diluted serum was mixed with 10 μl of the commercial live ovine Chlamydia vaccine (Intervet). Samples were incubated overnight (12-16 hours) at 37° C. 250 μl of 40% trichloroacetic acid and 250 μl of 1 mM 2-thiobarbituric acid was added to each sample. All samples were placed in a water bath and boiled for 30 minutes. Samples were cooled down and centrifuged at 3,000 g for 10 minutes. The supernatants were collected and their absorption measured at λ 525 nm to determine the concentration of malondialdehydes (MDA), which are products of lipid peroxidation.

anti-Chlamydia abzymes [2] = format: biochemical, human; remark: listed apart in the source
Procedure: as §1, §2
ELISA assays were performed using Medac materials and reagents, which were used in accordance with the manufacturers instructions.
Briefly, serum samples from patients were treated as described above. 50 μl of sample diluent was pipetted into microtitre well Al as blank, and 50 μl of the negative control, Positive Control and the diluted patients' samples were pipetted into other microtitre wells. The microplate wells were incubated for 60 min (±5 min) at 37° C. (±1° C.) in a humid chamber and then washed three times with 200 μl wash buffer per well. 50 μl of Conjugate was then added to each well and the microplate wells incubated again for 60 min (±5 min) at 37° C. (±1° C.) in a humid chamber and then washed. 50 μl of TMB-Substrate, was added to each well and the microplate wells incubated for 30 min (±2 min) at 37° C. (±1° C.) in a humid chamber. The reaction was stopped by adding 100 μl of Stop Solution, to each well.
Photometric reading was performed using a plate reader at 450 nm (ref. 620-650 nm) within 15 min after adding the Stop Solution.
To calculate the results, the OD value of the blank (well A1) was subtracted from all other OD values. […] Cut-off=mean OD value of the Negative Control+0.380. Grey zone=Cut-off±10%

[3] = patient serum, abzyme inhibitor added to diluent

CC1=C(/C=C/C(C)=C/C=C/C(C)=C/C=C/C=C(C)/C=C/C=C(C)/C=C/C2=C(C)CCCC2(C)C)C(C)(C)CCC1 [β-Carotene]
Inhibition of abzymes ability to cause: Serum lipid peroxidation, in MDA assay (anti-Chlamydia abzymes [1]): Negative
Inhibition of abzymes ability to cause: Damage of Chlamydia pneumoniae antigen, in ELISA (anti-Chlamydia abzymes [2]): Negative

OC[C@@H](O)[C@@H](O)[C@H](O)[C@H](O)CO [D-Mannitol]
Inhibition of abzymes ability to cause: Serum lipid peroxidation, in MDA assay (anti-Chlamydia abzymes [1]; [3]): Negative
Inhibition of abzymes ability to cause: Damage of Chlamydia pneumoniae antigen, in ELISA (anti-Chlamydia abzymes [2]; [3]): Negative

O=C1O[C@H]([C@@H](O)CO)C(O)=C1O [Ascorbic acid]
Inhibition of abzymes ability to cause: Serum lipid peroxidation, in MDA assay (anti-Chlamydia abzymes [1]; [3]): Positive
Inhibition of abzymes ability to cause: Damage of Chlamydia pneumoniae antigen, in ELISA (anti-Chlamydia abzymes [2]; [3]): Positive

CC(=O)Oc1ccccc1C(=O)O [Acetyl salicylic acid]
Inhibition of abzymes ability to cause: Serum lipid peroxidation, in MDA assay (anti-Chlamydia abzymes [1]): Positive
Inhibition of abzymes ability to cause: Damage of Chlamydia pneumoniae antigen, in ELISA (anti-Chlamydia abzymes [2]): Positive

Cc1c(C)c2c(c(C)c1O)CC[C@@](C)(CCC[C@H](C)CCC[C@H](C)CCCC(C)C)O2 [(+) α-Tocopherol]
Inhibition of abzymes ability to cause: Serum lipid peroxidation, in MDA assay (anti-Chlamydia abzymes [1]; [3]): Negative
Inhibition of abzymes ability to cause: Damage of Chlamydia pneumoniae antigen, in ELISA (anti-Chlamydia abzymes [2]; [3]): Negative

(+) Catechin gallate
Inhibition of abzymes ability to cause: Serum lipid peroxidation, in MDA assay (anti-Chlamydia abzymes [1]; [3]): Positive
Inhibition of abzymes ability to cause: Damage of Chlamydia pneumoniae antigen, in ELISA (anti-Chlamydia abzymes [2]; [3]): Positive

Cc1c(O)cc2c(c1C)O[C@](C)(CCC[C@H](C)CCC[C@H](C)CCCC(C)C)CC2 [(+) y-Tocopherol]
Inhibition of abzymes ability to cause: Serum lipid peroxidation, in MDA assay (anti-Chlamydia abzymes [1]): Negative
Inhibition of abzymes ability to cause: Damage of Chlamydia pneumoniae antigen, in ELISA (anti-Chlamydia abzymes [2]): Negative

O=C(O)c1ccccc1 [Benzoic acid]
Inhibition of abzymes ability to cause: Serum lipid peroxidation, in MDA assay (anti-Chlamydia abzymes [1]): Negative
Inhibition of abzymes ability to cause: Damage of Chlamydia pneumoniae antigen, in ELISA (anti-Chlamydia abzymes [2]): Negative

Haemoglobin
Inhibition of abzymes ability to cause: Serum lipid peroxidation, in MDA assay (anti-Chlamydia abzymes [1]): Positive
Inhibition of abzymes ability to cause: Damage of Chlamydia pneumoniae antigen, in ELISA (anti-Chlamydia abzymes [2]): Positive

O=C(O)CN(CCN(CC(=O)O)CC(=O)O)CC(=O)O [EDTA]
Inhibition of abzymes ability to cause: Serum lipid peroxidation, in MDA assay (anti-Chlamydia abzymes [1]): Positive
Inhibition of abzymes ability to cause: Damage of Chlamydia pneumoniae antigen, in ELISA (anti-Chlamydia abzymes [2]): Positive

PMS
Inhibition of abzymes ability to cause: Serum lipid peroxidation, in MDA assay (anti-Chlamydia abzymes [1]): Negative
Inhibition of abzymes ability to cause: Damage of Chlamydia pneumoniae antigen, in ELISA (anti-Chlamydia abzymes [2]): Negative

O=C(O)CN(CCOCCOCCN(CC(=O)O)CC(=O)O)CC(=O)O [EGTA]
Inhibition of abzymes ability to cause: Damage of Chlamydia pneumoniae antigen, in ELISA (anti-Chlamydia abzymes [2]; [3]): Positive

C[S+](C)[O-] [DMSO]
Inhibition of abzymes ability to cause: Serum lipid peroxidation, in MDA assay (anti-Chlamydia abzymes [1]; [3]): Positive
Inhibition of abzymes ability to cause: Damage of Chlamydia pneumoniae antigen, in ELISA (anti-Chlamydia abzymes [2]; [3]): Positive

CC(C)=CCC/C(C)=C/C=C/C(C)=C/C=C/C(C)=C/C=C/C=C(C)/C=C/C=C(C)/C=C/C=C(\C)CCC=C(C)C [Lycopene]
Inhibition of abzymes ability to cause: Serum lipid peroxidation, in MDA assay (anti-Chlamydia abzymes [1]; [3]): Negative
Inhibition of abzymes ability to cause: Damage of Chlamydia pneumoniae antigen, in ELISA (anti-Chlamydia abzymes [2]; [3]): Negative

CC[C@H]1OC(=O)[C@H](C)C(=O)[C@H](C)[C@@H](O[C@@H]2O[C@H](C)C[C@H](N(C)C)[C@H]2O)[C@](C)(OC)C[C@@H](C)C(=O)[C@H](C)[C@H]2N(CCCCn3cnc(-c4cccnc4)c3)C(=O)O[C@]12C [Telithromycin, Ketek, Telithromycin]
Inhibition of abzymes ability to cause: Serum lipid peroxidation, in MDA assay (anti-Chlamydia abzymes [1]; [3]): Positive
Inhibition of abzymes ability to cause: Damage of Chlamydia pneumoniae antigen, in ELISA (anti-Chlamydia abzymes [2]; [3]): Positive
